Key:
rat aortic SMC = assay: FBS-induced vascular smooth muscle cell proliferation, BrdU incorporation assay; assay type: cell-based; conditions: in vitro, 10% FBS for 24 h, 12-h pre-treatment of linagliptin
Protocol: Rat aortic vascular SMC (VSMC) and mouse aortic VSMC were serum-deprived in Dulbecco's modified Eagle's medium containing 0.1% fetal bovine serum (FBS) for at least 24 h and subjected to mitogenic stimulation with 10% FBS for 24 h with or without 12-h pre-treatment of linagliptin at the indicated concentration BrdU Assay. To evaluate cell proliferation of rat aortic SMC, the bromodeoxyuridine (BrdU) incorporation assay was performed using the Cell Proliferation enzyme-linked immunosorbent assay (ELISA) kit (1647229, Roche Applied Science, Mannheim, Germany) as previously described.

[1] = Plasma levels of linagliptin in mice fed linagliptin in chow; assay type: in vivo, C57BL/6 mice; conditions: 0.083 g/kg chow, corresponding to oral dose of 3 mg/kg/d
Description: (§1) 6-week-old male C57BL/6 mice were purchased and were housed in a polycarbonate cage with a wooden chip mat on the floor; water was available ad libitum. C57BL/6 mice were divided into 2 groups: control (n=14) and linagliptin-treated (n=14). At age 7 weeks, control mice were fed normal chow (22.6% protein, 53.8% carbohydrate, 5.6% fat, 6.6% mineral and vitamin mixture, and 3.3% fiber; total: 356 kcal/100 g) with vehicle; linagliptin-treated mice were fed normal chow with linagliptin (0.083 g/kg chow, which results in mean plasma levels of 50-150 nM, corresponding to an oral dose of 3 mg/kg/d). The animal room was kept on a 12-h light/dark cycle at a constant temperature (22±1° C.) with relative humidity of 55±5% throughout the experimental period. Endothelial denudation injuries were induced in the femoral artery at age 8 weeks, followed by evaluation of neointimal formation at age 12 weeks.

[2] = Body weight and blood glucose in non-diabetic mice; assay type: in vivo, C57BL/6 mice; conditions: linagliptin vs. control, 0.083 g/kg chow (3 mg/kg/d oral)
Description: as §1

active GLP-1 = assay: Serum active GLP-1 concentration (ELISA) in non-diabetic mice; assay type: in vivo, C57BL/6 mice; conditions: linagliptin vs. control, 0.083 g/kg chow (3 mg/kg/d oral)
Description: as §1

[3] = tested on: femoral arteries after vascular injury; assay: Guidewire-induced femoral artery endothelial denudation injury, neointima formation (tissue analysis, elastic staining); assay type: in vivo, C57BL/6 mice; conditions: non-diabetic mice, femoral artery guide wire injury, 4 weeks after injury, 0.083 g/kg chow (3 mg/kg/d oral)
Description: as §1, with “weeks. Mouse femoral artery endothelial denudation injury was induced in C57BL/6 mice in the control and linagliptin groups at age 8 weeks, as previously described. […] Serial sections of 1.5 mm proximal region from the incision site for the wire insertion were evaluated by staining with Elastica van Gieson stain kit (4033-4037, Muto Pure Chemicals Co., Tokyo, Japan) to visualize the internal elastic lamina.” for “weeks.”

With `CC#CCn1c(N2CCC[C@@H](N)C2)nc2c1c(=O)n(Cc1nc(C)c3ccccc3n1)c(=O)n2C` [Linagliptin, 1-[(4-methyl-quinazolin-2-yl)methyl]-3-methyl-7-(2-butyn-1-yl)-8-(3-(R)-amino-piperidin-1-yl)-xanthine] the “FBS-induced vascular smooth muscle (SMC) proliferation (BrdU assay)” value (rat aortic SMC) was “reduces”, the mean plasma levels [1] was 50 to 150 nM and the blood glucose [2] was “does not change”. For the same molecule, the body weight [2] was “does not change”, the “serum active GLP-1 concentration (ELISA)” value (active GLP-1) was “increases” and the “neointima formation after vascular injury (intima area, media area, intima/media ratio)” value [3] was “attenuates”.

Reference: patent publication US20140371243A1, “MEDICAL USE OF A DPP-4 INHIBITOR” (Boehringer Ingelheim International GmbH, priority 2013, published 2014)
